According to US20080207859A1, “F[…] LOW RESIDUAL AMOUNT OF F[…] PROCESS FOR ITS PRODUCTION” (Asahi Glass Company, Limited, priority 2005, published 2008):

Assay: Measurement of 1-octanol/water partition coefficient (LogPOW) by HPLC, OECD Test Guideline 117
Type: physicochemical
Details: for LogPOW (1-octanol/water partition coefficient): HPLC method, OECD Test Guideline 117, calculated from elution time via calibration curve of standard carboxylic acids, column temperature 40° C.; for bioaccumulation potential (judged from LogPOW value compared to APFO): inferred from LogPOW relative to APFO
Experimental: In accordance with OECD Test Guideline 117, 1-octanol/water partition coefficient (LogPOW) of a fluorinated emulsifier was measured by using HPLC (high performance liquid chromatography).
Conditions for the measurement were as follows:
column: TOSOH ODS-120T column (φ4.6 mm×250 mm), eluent: acetonitrile/0.6 mass % of HClO4 aqueous solution=1/1 (vol/vol %), flow rate: […], sample amount: 300 μL, column temperature: 40° C., and detection light: UV 210 nm (WO2005-42593).
HPLC was carried out on standard substances (heptanoic acid, octanoic acid, nonanoic acid and decanoic acid) having known 1-octanol/water partition coefficients, and a calibration curve was prepared from the respective elution times and octanol/water partition coefficients of the respective standard substances. Based on this calibration curve, a value of partition coefficient (LogPOW) between 1-octanol and water was calculated from the elution time by HPLC of the fluorinated emulsifier.

Compound	LogPOW (1-octanol/water partition coefficient)	bioaccumulation potential (judged from LogPOW value compared to APFO)
N.O=C(O)C(F)(F)C(F)(F)C(F)(F)C(F)(F)C(F)(F)C(F)(F)C(F)(F)F [CF3(CF2)6COONH4, ammonium perfluorooctanoate]	3.67	
N.O=C(O)C(F)(F)OC(F)(F)C(F)(F)OC(F)(F)C(F)(F)F [CF3CF2OCF2CF2OCF2COONH4]	3.13	low
N.O=C(O)C(F)(OC(F)(F)C(F)(OC(F)(F)C(F)(F)F)C(F)(F)F)C(F)(F)F (centres unmarked) [CF3CF2OCF(CF3)CF2OCF(CF3)COONH4]	4.03	high
